Consider one molecule from patent publication US6610750B1, “Treatment of osteoarthritis” (Laboratoires Negma, priority 2000, dated 2003).

Series [1] concerns prostaglandin biosynthesis. To be noted: cited from earlier work.
Series [2] has as its system patients with severe to moderate hip osteoarthritis. Kind of series: three-year, randomized, double-blind, placebo-controlled study of radiological progression of hip osteoarthritis. Type of series: in vivo, human. From the text:
In order to further explore the potential usefulness of diacerein in the treatment of osteoarthritis, and to closely monitor the relevance of the effects of the treatment by using an accurate radiographic technique, the inventors carried out a 3-year, randomized, double-blind and placebo-controlled multicenter clinical trial in 507 patients with hip osteoarthritis. The unexpected result of the study was that diacerein has a beneficial effect as a structure-modifying treatment for osteoarthritis, as evidenced radiographically by a reduction of the destructive progression of hip osteoarthritis. The results of this study are reported in Dougados M., Nguyen M., Berdah L., Lequesne M., Mazières B., Vignon E. 1999; “Evaluation of the structural (radiological) effect of diacerein in osteoarthritis of the hip: a 3-year placebo controlled study”, Osteoarthritis and Cart 7, Suppl. A: 123, and are by reference thereto incorporated herein in their entirety.
In a three-year, randomized, double-blind, placebo-controlled study, 507 patients with severe to moderate hip osteoarthritis were assigned to receive either diacerein, 50 mg twice daily, or an identical placebo. The primary criterion of radiological progression of osteoarthritis was defined by a reduction in the joint space width or at least 0.5 mm during the study. The annual joint space narrowing rate (mm/year) was also determined in the patients who completed the treatment.
A total of 482 patients who had at least two radiographs were evaluated. Baseline characteristics of the 241 patients in each group were similar. In the placebo group, 62.7% of the patients had radiological progression, compared to 53.9% in the diacerein group (log-rank test: p=0.037). Treatment was followed for three years by 269 patients, among whom 55.1% in the placebo group and 41.2% in the diacerein group had radiological progression (log-rank test: p=0.007).

A further series can be described thus: solubility of diacerein. Format: physicochemical.
For the next series, the system named is osteoarthritis. To be noted: after the start of the treatment; cited from earlier work.
The test system of series [3] is IL-1 and other cytokines (IL-6 and TNF). The settings on record: several studies in vitro and with animal models of osteoarthritis; cited from earlier work.

The structures appear in SMILES notation.

As for `CC(=O)Oc1cccc2c1C(=O)c1c(OC(C)=O)cc(C(=O)O)cc1C2=O` [diacerein, diacetylrhein], the “inhibitory effect on the phospholiphase, cyclo-oxygenase or lipo-oxygenase pathways (prostaglandin biosynthesis)” value in series [1] is “no inhibitory effect”. In addition, in series [2] (269 patients who completed three years, diacerein 50 mg twice daily, placebo 0.23±0.23, p=0.042), the “annual joint space narrowing rate” value is recorded as 0.18±0.25 mm/year. The “patients with radiological progression (reduction in joint space width of at least 0.5 mm)” value in series [2] (269 patients who followed treatment for three years, diacerein 50 mg twice daily, placebo 55.1%, log-rank p=0.007) amounted to 41.2%; in series [2] (482 patients with at least two radiographs, 241 per group, diacerein 50 mg twice daily, placebo 62.7%, log-rank p=0.037), 53.9%. Further, the “structure-modifying effect as compared to placebo” value in series [2] (over the three-year period) is “statistically significant structure-modifying effect”. The solubility in alcohol entry in the series “solubility of diacerein” (alcohol) is given as “virtually insoluble”. The solubility in water entry in the series “solubility of diacerein” (water) was “virtually insoluble”. Moreover, the “time of onset of the effect” value in the series with osteoarthritis is on record as ≥ 4 weeks. The “inhibition of IL-1 and other cytokines (IL-6 and TNF)” value in series [3] is given as “inhibit”.
